Results from patent US9414591B2, “Chitooligosaccharides and methods for use in enhancing corn growth” (NOVOZYMES BIOAG A/S, priority 2011, dated 2016).

What was measured:
Format in all cases: in vivo
Corn seeds [1] = assay: Corn seed germination in petriplates (Example 2); settings: 5 days after plating
Description: Corn seeds were plated in petriplates containing 5 ml of treatment solution on a filter paper. Corn seeds were placed on moist filter paper for germination. Similarly, wheat seeds (spring wheat) were placed in petriplates. […] Roots were harvested and their length measured by WinRhizo system.

Corn seeds [2] = assay: Greenhouse corn seed application, seedling dry weight (Example 3); settings: alone at 10^−8 M; harvested 10 days after planting (FIG. 9)
Description: Corn seeds were treated with various combinations of Pea CO (10^-8 M) and Pea LCO (10-8, 10^-9 M). Seeds were planted in greenhouse plastic pots containing 1:1 sand:perlite mixture. Seedlings were harvested 10 days after planting, washed clean and then dried in an oven at 60 C for 48 hr.

corn foliage = assay: Field trials, grain yield when applied to corn foliage (Example 4)
corn seed = assay: Field trials, grain yield when applied to corn seed before planting (Example 5)
[3] = system: Hybrid corn seeds (92L90); assay: Greenhouse corn seed treatment, plant dry weight (Example 1); settings: seed treatment solution 10^-8 M
Description: Two seed treatment experiments using only Pea LCO, Pea CO and the CO mixtures obtained from chitosan by enzymatic process (structurally distinct from the Pea CO, and also referred to in the examples as the “China CO”) were performed in greenhouse. Hybrid corn seeds (92L90, Peterson Farm, USA) were treated with treatment solution (10^-8 M) at the rate of 3 fl oz/100 lbs of seed. Seeds were planted in plastic pots containing 1:1 Sand:Perlite mixture. Seeds were allowed to grow for about 3-4 weeks and then they were harvested and their dry weight measured.

[4] = seed treatment, CO compared to LCO, less

**Q.** How did the “seed germination” value (Corn seeds [1]; 5 ml treatment solution on filter paper, vs control (FIG. 7)) turn out when `CC(=O)NC1C(O)OC(CO)C(OC2OC(CO)C(OC3OC(CO)C(OC4OC(CO)C(OC5OC(CO)C(O)C(O)C5N)C(O)C4NC(C)=O)C(O)C3NC(C)=O)C(O)C2NC(C)=O)C1O` (stereo not shown) [CO (CO-V)] was run?
**A.** increased germination

**Q.** And the “seedling root length” value (Corn seeds [1]; WinRhizo system, vs control)?
**A.** significantly increased seedling root length over control

**Q.** And the “corn seedling dry weight” value (Corn seeds [2])?
**A.** increased corn seedling dry weight

**Q.** What about the “yield enhancement as a foliar treatment” value (corn foliage) of the same compound?
**A.** performed at least twice better than the LCO

**Q.** And the “CO mean yield better than foliar LCO response” value (corn foliage; CO compared to LCO)?
**A.** 5.0 bu/A

**Q.** What about the “YIELD, Response Increase (% of Control)” value (corn foliage; foliar) of the same compound?
**A.** 4.8 % of Control

**Q.** What about the “YIELD, Mean (N = 16)” value (corn foliage; foliar, 4 ounces per acre with glyphosate herbicide, 16 field trials) of the same compound?
**A.** 201.8 bu/A

**Q.** And the “higher yield increase than LCO” value (corn foliage; foliar, CO compared to LCO)?
**A.** 2.6%

**Q.** And the “trials with a positive response, better than LCO” value (corn foliage; foliar, CO compared to LCO)?
**A.** 18.8%

**Q.** And the “Positive Yield Response (%)” value (corn foliage; foliar, share of the 16 trials with positive yield enhancement)?
**A.** 93.8%

**Q.** And the “YIELD, Response (bu/A)” value (corn foliage; foliar, versus Control (water))?
**A.** 9.2 bu/A

**Q.** What about the “YIELD, Response Increase (% of Control)” value (corn seed; seed treatment) of the same compound?
**A.** 3.6 % of Control

**Q.** And the “yield enhancement when applied to corn seed” value (corn seed; seed treatment)?
**A.** provided yield enhancement above the Control

**Q.** What about the “YIELD, Mean (N = 10)” value (corn seed; seed treatment 1×10-8 molar, 1 μg/acre, 3 fluid ounces per 50 pounds of seed, 10 field trials) of the same compound?
**A.** 188.0 bu/A

**Q.** And the “CO mean yield less than LCO” value (corn seed; [4])?
**A.** 4.6 bu/A

**Q.** What about the “less positive yield responses than LCO” value (corn seed; [4]) of the same compound?
**A.** 10.0%

**Q.** And the “less yield increase above the Control than LCO” value (corn seed; [4])?
**A.** 2.5%

**Q.** And the “Positive Yield Response (%)” value (corn seed; seed treatment, share of the 10 trials with positive yield enhancement)?
**A.** 80.0%

**Q.** What about the “YIELD, Response (bu/A)” value (corn seed; seed treatment, versus Control (water)) of the same compound?
**A.** 6.5 bu/A

**Q.** What about the “shoot, root and total biomass / plant dry weight compared to LCO” value ([3]; both experiments) of the same compound?
**A.** greater shoot, root and total biomass increase over non-inventive and comparable LCO

**Q.** And the “dry weight increase over LCO” value ([3]; first trial (FIG. 5), 3 fl oz/100 lbs of seed, harvested after about 3-4 weeks)?
**A.** 11.84%

**Q.** What about the “dry weight-increase over LCO” value ([3]; second trial (FIG. 6), 3 fl oz/100 lbs of seed, harvested after about 3-4 weeks) of the same compound?
**A.** 12.63%
